Measurements from ChEMBL document CHEMBL1156182 (Bioorg Med Chem Lett, 2010).
pEC50: −log10 of the molar value. Active and inactive are the calls of the source. The rule behind the calls is not given here.

Experiments:
[1] = target: T1, Peroxisome proliferator-activated receptor alpha (Homo sapiens) (UniProt Q07869); assay: Transactivation of human PPARalpha LBD expressed in african green monkey Cos7 cells co-transfected with fused GAL4-DBD at 10 uM after 14 hrs by Dual-Glo Luciferase reporter gene assay; assay type: cell-based; conditions: COS-7
T1 sequence (whole entry): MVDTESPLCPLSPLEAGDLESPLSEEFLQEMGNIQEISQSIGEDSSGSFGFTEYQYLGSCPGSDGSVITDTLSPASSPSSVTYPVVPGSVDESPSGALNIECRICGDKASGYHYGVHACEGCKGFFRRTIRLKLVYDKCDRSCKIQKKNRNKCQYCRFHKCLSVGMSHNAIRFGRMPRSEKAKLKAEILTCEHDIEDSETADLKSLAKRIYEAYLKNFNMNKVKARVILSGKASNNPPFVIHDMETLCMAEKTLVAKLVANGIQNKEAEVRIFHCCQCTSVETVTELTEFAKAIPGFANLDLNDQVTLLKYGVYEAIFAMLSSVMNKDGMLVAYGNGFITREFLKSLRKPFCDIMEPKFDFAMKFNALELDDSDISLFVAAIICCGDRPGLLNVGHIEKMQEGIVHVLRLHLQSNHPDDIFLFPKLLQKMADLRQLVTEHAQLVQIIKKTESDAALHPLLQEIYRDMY

[2] = target: T2, Peroxisome proliferator-activated receptor gamma (Homo sapiens, UniProt P37231)
T2 sequence (P37231 whole entry): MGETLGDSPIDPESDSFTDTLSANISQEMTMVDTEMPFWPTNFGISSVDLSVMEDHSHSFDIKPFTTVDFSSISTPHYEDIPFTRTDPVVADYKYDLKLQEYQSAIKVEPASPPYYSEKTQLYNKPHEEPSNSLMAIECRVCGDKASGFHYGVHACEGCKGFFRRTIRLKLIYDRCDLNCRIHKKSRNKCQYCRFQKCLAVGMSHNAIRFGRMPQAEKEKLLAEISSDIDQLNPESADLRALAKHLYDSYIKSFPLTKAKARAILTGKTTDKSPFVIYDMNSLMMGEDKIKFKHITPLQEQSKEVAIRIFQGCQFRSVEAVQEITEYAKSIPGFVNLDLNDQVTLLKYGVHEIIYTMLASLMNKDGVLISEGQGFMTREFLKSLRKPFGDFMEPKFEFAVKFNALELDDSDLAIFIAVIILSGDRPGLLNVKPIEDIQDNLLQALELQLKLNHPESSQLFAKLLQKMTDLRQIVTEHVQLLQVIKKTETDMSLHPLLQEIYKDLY

[3] = target: T3, Peroxisome proliferator-activated receptor gamma (Homo sapiens) (UniProt P37231); assay: Transactivation of human PPARgamma LBD expressed in african green monkey Cos7 cells co-transfected with fused GAL4-DBD at 10 uM after 14 hrs by Dual-Glo Luciferase reporter gene assay; assay type: cell-based; conditions: COS-7
T3 sequence (whole entry): T2 sequence (P37231 whole entry)

[4] = target: T3, Peroxisome proliferator-activated receptor gamma (Homo sapiens); assay: Transactivation of human PPARgamma LBD expressed in african green monkey Cos7 cells co-transfected with fused GAL4-DBD after 14 hrs by Dual-Glo Luciferase reporter gene assay; conditions: COS-7
[5] = target: T3, Peroxisome proliferator-activated receptor gamma (Homo sapiens); assay: Agonist activity at human PPARgamma LBD expressed in african green monkey Cos7 cells co-transfected with fused GAL4-DBD after 14 hrs by Dual-Glo Luciferase reporter gene transactivation assay; assay type: functional, cell-based; conditions: COS-7

| Compound | Activity [1] | pEC50 [2] | Activity [3] | Activity [4] | Activity [5] |
| --- | --- | --- | --- | --- | --- |
| O=C(O)C(Sc1nc(Cl)cc(NCCc2ccccc2)n1)c1cccc2ccccc12 (stereo not given) | inactive | 4.97 |  |  |  |
| O=C(O)C(Sc1nc(Cl)cc(NCCCc2ccccc2)n1)c1cccc2ccccc12 (stereo not given) | inactive | 5.05 |  |  |  |
| CCCCCCC(Sc1nc(Cl)cc(Nc2cccc(C)c2C)n1)C(=O)O (stereo not given) |  | 5.44 |  |  |  |
| CCCCNc1cc(Cl)nc(SC(C(=O)O)c2cccc3ccccc23)n1 (stereo not given) | inactive |  | inactive | inactive |  |
| Cc1cccc(Nc2cc(Cl)nc(SC(C(=O)O)c3cccc4ccccc34)n2)c1C (stereo not given) | inactive | 5.21 |  |  | inactive |
| Cc1cccc(Nc2cc(Cl)nc(SC(C(=O)O)c3ccc(-c4ccccc4)c4ccccc34)n2)c1C (stereo not given) | inactive | 5.35 |  |  |  |
| CCc1ccc(CCOc2ccc(CC3SC(=O)NC3=O)cc2)nc1 (stereo not given) | inactive |  |  |  |  |
| CC(C)CCNc1cc(Cl)nc(SC(C(=O)O)c2cccc3ccccc23)n1 (stereo not given) | inactive | 5.05 |  |  |  |

Further lines, results first:

| Activity [1] | pEC50 [2] | Activity [3] | Activity [4] | Activity [5] | Compound |
| --- | --- | --- | --- | --- | --- |
| inactive | 5.12 |  |  |  | CC(C)c1ccc(Nc2cc(Cl)nc(SC(C(=O)O)c3cccc4ccccc34)n2)cc1 (stereo not given) |
| inactive | 4.89 |  |  |  | O=C(O)C(Sc1nc(Cl)cc(Nc2ccc(F)cc2)n1)c1cccc2ccccc12 (stereo not given) |
| inactive | 5.17 |  |  |  | O=C(O)C(Sc1nc(Cl)cc(Nc2ccc3c(c2)CCC3)n1)c1cccc2ccccc12 (stereo not given) |
| inactive | 5.14 |  |  |  | O=C(O)C(Sc1nc(Cl)cc(Nc2cccc(Cl)c2)n1)c1cccc2ccccc12 (stereo not given) |
| inactive | 5.05 |  |  |  | O=C(O)C(Sc1nc(Cl)cc(Nc2ccc(Cl)cc2)n1)c1cccc2ccccc12 (stereo not given) |
| inactive | 5.11 |  |  |  | Cc1ccc(Nc2cc(Cl)nc(SC(C(=O)O)c3cccc4ccccc34)n2)cc1C (stereo not given) |
| inactive | 5.16 |  |  |  | O=C(O)C(Sc1nc(Cl)cc(Nc2ccc3ccccc3c2)n1)c1cccc2ccccc12 (stereo not given) |
